pEC50: −log10 of the molar value.
Biological target: T1, mutant CFTR (Homo sapiens, UniProt P13569, DEL508-508)
T1 construct: expressed in transfected cells
Test: Fluorescence (HS-YFP) assay for CFTR activity, corrector assay
Assay type: cell-based
Conditions: CFBE41o- and FRT cells with stable expression of mutant CFTR, 24 h compound treatment
Procedure, shortened: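 CFBE41o- or FRT cells stably expressing mutant CFTR and HS-YFP were exposed to compounds for 24 h (corrector mode), then stimulated 30 min at 37° C with forskolin (20 μM) plus genistein (50 μM). YFP quenching after 100 mM iodide injection; initial slope from exponential fit of final 10 s; EC50 reported.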

T1 sequence (P13569 with tags, fused parts or gaps DEL508-508): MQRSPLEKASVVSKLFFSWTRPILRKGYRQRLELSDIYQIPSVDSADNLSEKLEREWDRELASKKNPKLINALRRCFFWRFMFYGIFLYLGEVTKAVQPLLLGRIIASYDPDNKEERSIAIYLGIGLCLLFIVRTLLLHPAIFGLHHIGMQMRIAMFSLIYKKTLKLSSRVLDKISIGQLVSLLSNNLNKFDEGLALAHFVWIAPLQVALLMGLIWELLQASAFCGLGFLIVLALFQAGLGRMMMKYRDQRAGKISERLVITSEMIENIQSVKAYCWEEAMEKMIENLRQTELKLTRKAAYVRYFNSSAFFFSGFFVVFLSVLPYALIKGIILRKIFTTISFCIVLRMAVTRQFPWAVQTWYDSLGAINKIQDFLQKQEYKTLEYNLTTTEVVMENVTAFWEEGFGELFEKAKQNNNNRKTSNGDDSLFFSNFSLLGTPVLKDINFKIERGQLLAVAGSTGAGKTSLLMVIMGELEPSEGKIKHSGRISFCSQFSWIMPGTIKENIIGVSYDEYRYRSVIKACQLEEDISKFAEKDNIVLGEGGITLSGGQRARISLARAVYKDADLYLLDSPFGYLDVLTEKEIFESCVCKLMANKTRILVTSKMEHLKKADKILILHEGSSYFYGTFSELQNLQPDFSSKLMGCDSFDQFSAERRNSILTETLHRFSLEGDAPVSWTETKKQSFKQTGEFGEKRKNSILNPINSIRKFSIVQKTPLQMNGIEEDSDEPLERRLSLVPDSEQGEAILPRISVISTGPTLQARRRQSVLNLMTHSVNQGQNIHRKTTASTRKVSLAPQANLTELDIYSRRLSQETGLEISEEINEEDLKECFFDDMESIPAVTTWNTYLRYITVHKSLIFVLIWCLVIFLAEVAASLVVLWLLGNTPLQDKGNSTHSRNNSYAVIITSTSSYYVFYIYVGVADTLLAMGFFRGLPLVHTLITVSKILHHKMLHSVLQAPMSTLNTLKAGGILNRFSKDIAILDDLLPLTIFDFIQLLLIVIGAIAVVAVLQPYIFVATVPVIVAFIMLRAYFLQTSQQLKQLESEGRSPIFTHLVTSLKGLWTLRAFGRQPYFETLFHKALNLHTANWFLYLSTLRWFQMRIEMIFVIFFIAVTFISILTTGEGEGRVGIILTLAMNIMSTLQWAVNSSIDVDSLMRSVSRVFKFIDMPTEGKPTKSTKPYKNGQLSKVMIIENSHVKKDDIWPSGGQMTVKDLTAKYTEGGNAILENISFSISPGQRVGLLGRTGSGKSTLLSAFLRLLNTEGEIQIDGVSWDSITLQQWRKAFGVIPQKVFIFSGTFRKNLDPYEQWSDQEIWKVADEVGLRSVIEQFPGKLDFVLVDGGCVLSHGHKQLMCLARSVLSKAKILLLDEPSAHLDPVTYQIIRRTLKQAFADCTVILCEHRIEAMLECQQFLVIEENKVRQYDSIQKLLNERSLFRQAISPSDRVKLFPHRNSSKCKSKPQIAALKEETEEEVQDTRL

Structure (SMILES)	pEC50
Cc1nn(-c2cccc(C(=O)N(C)c3ccc4oc(C(F)(F)F)nc4c3)c2)c(C)c1Cl [compound 078, 3-(4-Chloro-3,5-dimethyl-pyrazol-1-yl)-N-methyl-N-[2-(trifluoromethyl)-1,3-benzoxazol-5-yl]benzamide]	< 5.70
[2H]C([2H])([2H])N(C(=O)c1cccc(-n2nc(C)c(Cl)c2C)c1)c1ccc2c(c1)OC(F)(F)O2 [compound 039, 3-(4-Chloro-3,5-dimethyl-pyrazol-1-yl)-N-(2,2-difluoro-1,3-benzodioxol-5-yl)-N-(trideuteriomethyl) benzamide]	5.70 to 6.00
Cc1cn2cc(N(C)C(=O)c3cccc(-n4nc(C)c(Cl)c4C)c3)ccc2n1 [compound 077, 3-(4-Chloro-3,5-dimethyl-pyrazol-1-yl)-N-methyl-N-(2-methylimidazo[1,2-a]pyridin-6-yl)benzamide]	> 6.00
Cc1nc2cc(Cl)c(N(C)C(=O)c3cccc(-n4nc(C(F)(F)F)c(Cl)c4C)c3)cc2o1 [compound 123, N-(5-Chloro-2-methyl-1,3-benzoxazol-6-yl)-3-[4-chloro-5-methyl-3-(trifluoromethyl)pyrazol-1-yl]-N-methyl-benzamide]	> 6.00
Cc1nn(-c2cccc(C(=O)N(C)c3ccc4c(c3)CCO4)c2)c(C)c1Cl [compound 058]	> 6.00
CN(C(=O)c1cccc(-n2nc(C(F)(F)F)cc2OCc2ccccc2)c1)c1ccc2c(c1)OCO2 [compound 132, N-(1,3-benzodioxol-5-yl)-3-[5-benzyloxy-3-(trifluoromethyl)pyrazol-1-yl]-N-methyl-benzamide]	> 6.00
CCOC(=O)c1c(Cl)c(C)nn1-c1cccc(C(=O)N(C)c2ccc3c(c2)OCCO3)c1 [compound 103, Ethyl 4-chloro-2-[3-[2,3-dihydro-1,4-benzodioxin-6-yl (methyl)carbamoyl]phenyl]-5-methyl-pyrazole-3-carboxylate]	> 6.00
COc1ccc(NC(=O)c2cccc(-n3nc(C)c(Cl)c3C)c2)cc1OC [Int-013, 3-(4-Chloro-3,5-dimethyl-pyrazol-1-yl)-N-(3,4-dimethoxyphenyl)benzamide]	< 5.70
Cc1nn(-c2cccc(C(=O)N(C)c3ccc4c(c3)CCC4)c2)c(C)c1Cl [compound 023, 3-(4-chloro-3,5-dimethyl-pyrazol-1-yl)-N-indan-5-yl-N-methyl-benzamide]	> 6.00
COc1ccc(N(C)C(=O)c2cccc(-n3nc(C)c(Cl)c3C)c2)cc1OC [compound 014, 3-(4-Chloro-3,5-dimethyl-pyrazol-1-yl)-N-(3,4-dimethoxyphenyl)-N-methyl-benzamide]	< 5.70
Cc1nn(-c2cccc(C(=O)Nc3cccc4c3OC(F)(F)O4)c2)c(C)c1Cl [Int-022, 3-(4-Chloro-3,5-dimethyl-pyrazol-1-yl)-N-(2,2-difluoro-1,3-benzodioxol-4-yl)benzamide]	5.70 to 6.00
CC(C)Cc1c(Cl)c(C(F)(F)F)nn1-c1cccc(C(=O)N(C)c2cc3c(cc2Cl)OCO3)c1 [compound 110, N-(6-Chloro-1,3-benzodioxol-5-yl)-3-[4-chloro-5-isobutyl-3-(trifluoromethyl)pyrazol-1-yl]-N-methyl-benzamide]	> 6.00
Cc1nn(-c2cccc(C(=O)N(C)c3ccc4c(c3)OCO4)c2)c(C(=O)N(C)C)c1Cl [compound 088, 2-[3-[1,3-benzodioxol-5-yl(methyl)carbamoyl]phenyl]-4-chloro-N,N,5-trimethyl-pyrazole-3-carboxamide]	< 5.70
Cc1cc(C(=O)O)nn1-c1cccc(C(=O)N(C)c2ccc3c(c2)OCO3)c1 [compound 066, 1-[3-[1,3-Benzodioxol-5-yl(methyl)carbamoyl]phenyl]-5-methyl-pyrazole-3-carboxylic acid]	< 5.70

Next, values leading:

pEC50	Structure (SMILES)
> 6.00	COC(=O)c1ccc(COc2cc(C(F)(F)F)nn2-c2cccc(C(=O)N(C)c3ccc4c(c3)OCO4)c2)cc1 [compound 152, Methyl-4-[[2-[3-[1,3-benzodioxol-5-yl(methyl)carbamoyl]phenyl]-5-(trifluoromethyl)pyrazol-3-yl]oxymethyl]benzoate]
> 6.00	COc1ccccc1-c1cc(C(F)(F)F)nn1-c1cccc(C(=O)N(C)c2ccc3c(c2)OCO3)c1 [compound 184, N-(1,3-Benzodioxol-5-yl)-3-[5-(2-methoxyphenyl)-3-(trifluoromethyl)pyrazol-1-yl]-N-methyl-benzamide]
< 5.70	Cc1c(N(C)C(=O)c2cccc(-n3nc(C(F)(F)F)c(Cl)c3C)c2)ccc2c1OCO2 [compound 269, 3-[4-chloro-5-methyl-3-(trifluoromethyl)pyrazol-1-yl]-N-methyl-N-(4-methyl-1,3-benzodioxol-5-yl)benzamide]
> 6.00	COC(=O)C12CC(COc3cc(C(F)(F)F)nn3-c3cccc(C(=O)N(C)c4ccc5c(c4)OC(F)(F)O5)c3)(C1)C2 [compound 254, Methyl 3-[[2-[3-[(2,2-difluoro-1,3-benzodioxol-5-yl)-methyl-carbamoyl]phenyl]-5-(trifluoromethyl)pyrazol-3-yl]oxymethyl]bicyclo[1.1.1]pentane-1-carboxylate]
> 6.00	CN(C(=O)c1cccc(-n2nc(C(F)(F)F)cc2OCc2ccc(C(=O)O)cc2)c1)c1ccc2c(c1)OCC2 [compound 262, 4-[[2-[3-[2,3-Dihydrobenzofuran-6-yl(methyl)carbamoyl]phenyl]-5-(trifluoromethyl)pyrazol-3-yl]oxymethyl]benzoic acid]
5.70 to 6.00	CN(C(=O)c1cccc(-n2nc(C(F)(F)F)cc2OC2CCN(C(=O)CCC(=O)O)CC2)c1)c1ccc2c(c1)OC(F)(F)O2 [compound 264, 4-[4-[2-[3-[(2,2-Difluoro-1,3-benzodioxol-5-yl)-methyl-carbamoyl]phenyl]-5-(trifluoromethyl)pyrazol-3-yl]oxy-1-piperidyl]-4-oxo-butanoic acid]
< 5.70	O=C(Nc1ccc2c(c1)OCO2)c1cccc(-n2nc(C(F)(F)F)c(Cl)c2C2CC2)c1 [compound 165, N-(1,3-Benzodioxol-5-yl)-3-[4-chloro-5-cyclopropyl-3-(trifluoromethyl)pyrazol-1-yl]benzamide]
> 6.00	CCOC(=O)c1cccc(OCc2c(Cl)c(C)nn2-c2cccc(C(=O)N(C)c3ccc4c(c3)OCO4)c2)c1 [compound 140, Ethyl 3-[[2-[3-[1,3-benzodioxol-5-yl(methyl)carbamoyl]phenyl]-4-chloro-5-methyl-pyrazol-3-yl]methoxy]benzoate]
< 5.70	Cc1nn(-c2cc(C(=O)N(C)c3ccc4c(c3)OCO4)ccn2)c(C(F)(F)F)c1Cl [compound 170, N-(1,3-Benzodioxol-5-yl)-2-[4-chloro-3-methyl-5-(trifluoromethyl)pyrazol-1-yl]-N-methyl-pyridine-4-carboxamide]
> 6.00	Cc1nc2cc(F)c(N(C)C(=O)c3cccc(-n4nc(C(F)(F)F)c(Cl)c4COc4ccc(C(=O)O)cc4)c3)cc2o1 [compound 234, 4-[[4-Chloro-2-[3-[(5-fluoro-2-methyl-1,3-benzoxazol-6-yl)-methyl-carbamoyl]phenyl]-5-(trifluoromethyl)pyrazol-3-yl]methoxy]benzoic acid]
> 6.00	Cc1c(Cl)c(C(F)(F)F)nn1-c1cc(C(=O)N(C)c2ccc3c(c2)OCO3)ccn1 [compound 171, N-(1,3-Benzodioxol-5-yl)-2-[4-chloro-5-methyl-3-(trifluoromethyl)pyrazol-1-yl]-N-methyl-pyridine-4-carboxamide]

Source: US12492193B2, “Pyrazole derivatives for the treatment of cystic fibrosis” (Fondazione Istituto Italiano Di Tecnologia, priority 2017, dated 2025)
